Holding throughout (assay type): functional
Experiment [1] deals with Mycobacterium tuberculosis. In words: Antitubercular activity against Mycobacterium tuberculosis SS1.
Experiment [2] has as its system Mycobacterium tuberculosis. In words: Antitubercular activity against Mycobacterium tuberculosis SS2.
The subject of experiment [3] is Mycobacterium tuberculosis. In words: Antitubercular activity against Mycobacterium tuberculosis SS3.
Experiment [4] has as its system Mycobacterium tuberculosis. In words: Antitubercular activity against Mycobacterium tuberculosis SS4.
The subject of experiment [5] is Mycobacterium tuberculosis. In words: Antitubercular activity against Mycobacterium tuberculosis SS5.
In experiment [6] the test system is Mycobacterium tuberculosis. In words: Antitubercular activity against Mycobacterium tuberculosis SS6.
The subject of experiment [7] is Mycobacterium tuberculosis. As to the kind of experiment: Antitubercular activity against Mycobacterium tuberculosis SS7.
Experiment [8] has as its system Mycobacterium tuberculosis. As to the kind of experiment: Antitubercular activity against Mycobacterium tuberculosis SS8.
Experiment [9] deals with Mycobacterium tuberculosis. As to the kind of experiment: Antitubercular activity against Mycobacterium tuberculosis SS9.
The test system of experiment [10] is Mycobacterium tuberculosis. In words: Antitubercular activity against Mycobacterium tuberculosis SS10.
Experiment [11] has as its system Mycobacterium tuberculosis. As to the kind of experiment: Antitubercular activity against Mycobacterium tuberculosis SS11.
The test system of experiment [12] is Mycobacterium tuberculosis. In words: Antitubercular activity against Mycobacterium tuberculosis H37Rv.

In brackets after ≈: the same amount, converted by molar mass. Bounds are passed on as bounds.

As a reminder, the MIC90 is an inhibitory concentration at the 90% level, which refers to growth in some studies and to a panel of isolates in others. A high value points to weaker potency. Take `Cn1nnc2c3c(ccc21)c(=O)c(C(=O)O)cn3CCc1ccccc1`: the MIC90 in experiment [1] turned out to be 0.8 µg/mL (≈ 2.3 µM); in experiment [2] it was 0.8 µg/mL (≈ 2.3 µM); in experiment [3], 3.2 µg/mL (≈ 9.19 µM); in experiment [4], 3.2 µg/mL (≈ 9.19 µM); in experiment [5], 3.2 µg/mL (≈ 9.19 µM); in [6], 3.2 µg/mL (≈ 9.19 µM). Also, the MIC90 turned out to be 3.2 µg/mL (≈ 9.19 µM) in experiment [7]; 0.8 µg/mL (≈ 2.3 µM) in [8]; 0.8 µg/mL (≈ 2.3 µM) in [9]; 3.2 µg/mL (≈ 9.19 µM) in [10]; 0.8 µg/mL (≈ 2.3 µM) in [11]; 0.8 µg/mL (≈ 2.3 µM) in [12].
`CCCn1cc(C(=O)O)c(=O)c2ccc3c(nnn3C)c21`: the MIC90 was determined as 1.6 µg/mL (≈ 5.59 µM) in experiment [1]; 1.6 µg/mL (≈ 5.59 µM) in experiment [2]; 1.6 µg/mL (≈ 5.59 µM) in experiment [3]; 3.2 µg/mL (≈ 11.2 µM) in [4]; 3.2 µg/mL (≈ 11.2 µM) in experiment [5]; 1.6 µg/mL (≈ 5.59 µM) in experiment [6]. The MIC90 in experiment [7] turned out to be 3.2 µg/mL (≈ 11.2 µM); in experiment [8], 1.6 µg/mL (≈ 5.59 µM); in experiment [9], 1.6 µg/mL (≈ 5.59 µM); in experiment [10] it was 1.6 µg/mL (≈ 5.59 µM); in [11] it was 1.6 µg/mL (≈ 5.59 µM); in experiment [12] it was 1.6 µg/mL (≈ 5.59 µM).
As to `C=CCn1cc(C(=O)O)c(=O)c2ccc3c(nnn3C)c21`, the MIC90 in [1], in experiment [2], in experiment [3], in [4], in [5] and in experiment [6] was over 32 µg/mL each time. Besides, the MIC90 in [7], in [8], in experiment [9], in [10], in [11] and in experiment [12] was over 32 µg/mL in each case.
As for `CO[C@H]1/C=C/O[C@@]2(C)Oc3c(C)c(O)c4c(O)c(c(/C=N/N5CCN(C)CC5)c(O)c4c3C2=O)NC(=O)/C(C)=C\C=C\[C@H](C)[C@H](O)[C@@H](C)[C@@H](O)[C@@H](C)[C@H](OC(C)=O)[C@@H]1C` [RIFAMPIN], the MIC90 in experiment [1] is over 4 µg/mL; in [2], over 4 µg/mL; in experiment [3] it was 0.5 µg/mL (≈ 0.608 µM); in [4], 0.7 µg/mL (≈ 0.851 µM); in experiment [5], 0.5 µg/mL (≈ 0.608 µM); in experiment [6] it was over 4 µg/mL. In addition, the MIC90 in [7] came out at 0.8 µg/mL (≈ 0.972 µM); in experiment [8] it was 0.5 µg/mL (≈ 0.608 µM); in [9], 0.5 µg/mL (≈ 0.608 µM); in experiment [10] it was 0.8 µg/mL (≈ 0.972 µM); in experiment [11], 0.5 µg/mL (≈ 0.608 µM); in experiment [12] it was 0.7 µg/mL (≈ 0.851 µM).
`Cn1nnc2c3[nH]cc(C(=O)O)c(=O)c3ccc21` came in with an MIC90 in experiment [12] of 4.8 µg/mL (≈ 19.7 µM).
On the same count and under the same terms, for `CCn1cc(C(=O)O)c(=O)c2ccc3c(nnn3CC)c21` the value was 1.6 µg/mL (≈ 5.59 µM).
`CCOC(=O)c1cn(Cc2ccc(C)cc2)c2c(ccc3c2nnn3C)c1=O`: the MIC90 in experiment [1], in experiment [2], in experiment [3], in experiment [4], in experiment [5] and in experiment [6] was over 32 µg/mL throughout. In addition, the MIC90 in experiment [7], in experiment [8], in experiment [9], in experiment [10], in [11] and in [12] was over 32 µg/mL throughout.
In the case of `Cc1ccc(Cn2cc(C(=O)O)c(=O)c3ccc4c(nnn4C)c32)cc1`, the MIC90 in experiment [1], in [2], in [3], in experiment [4], in experiment [5] and in experiment [6] was over 32 µg/mL in each case. The MIC90 in experiment [7], in experiment [8], in experiment [9], in [10], in experiment [11] and in experiment [12] was over 32 µg/mL throughout.
Consider `CCn1cc(C(=O)O)c(=O)c2ccc3nn(C)nc3c21`, for which, in experiment [12], the MIC90 is 5 µg/mL (≈ 18.4 µM).
For `C=CCn1cc(C(=O)OCC)c(=O)c2ccc3c(nnn3C)c21`, the MIC90 in experiment [1], in experiment [2], in experiment [3], in experiment [4], in experiment [5] and in experiment [6] was over 32 µg/mL each time. Moreover, the MIC90 in experiment [7], in experiment [8], in experiment [9], in experiment [10], in [11] and in experiment [12] was over 32 µg/mL each time.
Turning to `CCOC(=O)c1cn(Cc2ccc(Br)cc2)c2c(ccc3c2nnn3C)c1=O`, the MIC90 in experiment [1], in [2], in experiment [3], in experiment [4], in experiment [5] and in experiment [6] was over 32 µg/mL throughout. The MIC90 in experiment [7], in experiment [8], in experiment [9], in experiment [10], in experiment [11] and in [12] was over 32 µg/mL in each case.
Regarding `CCCCn1cc(C(=O)O)c(=O)c2ccc3c(nnn3C)c21`, the MIC90 in experiment [1], in experiment [2], in experiment [3], in experiment [4], in experiment [5] and in experiment [6] was over 32 µg/mL in each case. For the same compound, the MIC90 in [7], in experiment [8], in [9], in [10], in [11] and in experiment [12] was over 32 µg/mL in each case.
Regarding `CCOC(=O)c1cn(Cc2ccccc2)c2c(ccc3c2nnn3C)c1=O`, the MIC90 in experiment [1], in experiment [2], in [3], in experiment [4], in [5] and in experiment [6] was over 32 µg/mL throughout. The MIC90 in [7], in [8], in experiment [9], in experiment [10], in [11] and in [12] was over 32 µg/mL in each case.
Take `Cn1cc(C(=O)O)c(=O)c2ccc3c(nnn3C)c21`: the MIC90 in experiment [1] came to 0.5 µg/mL (≈ 1.94 µM); in experiment [2], 0.5 µg/mL (≈ 1.94 µM); in experiment [3], 0.5 µg/mL (≈ 1.94 µM); in experiment [4], 2 µg/mL (≈ 7.74 µM); in [5], 0.5 µg/mL (≈ 1.94 µM); in experiment [6] it was 0.5 µg/mL (≈ 1.94 µM). For the same compound, the MIC90 in experiment [7], in experiment [8], in [9], in experiment [10], in [11] and in experiment [12] was 0.5 µg/mL (≈ 1.94 µM) in each case.
Turning to `CCCn1cc(C(=O)OCC)c(=O)c2ccc3c(nnn3C)c21`, the MIC90 in [1], in experiment [2], in [3], in experiment [4], in experiment [5] and in [6] was over 32 µg/mL throughout. The MIC90 in experiment [7], in [8], in experiment [9], in [10], in [11] and in experiment [12] was over 32 µg/mL each time.
For the compound `CCn1cc(C(=O)O)c(=O)c2ccc3c(nnn3C)c21`, the MIC90 is 1.6 µg/mL (≈ 5.88 µM) in [1]; 0.8 µg/mL (≈ 2.94 µM) in experiment [2]; 3.2 µg/mL (≈ 11.8 µM) in experiment [3]; 3.2 µg/mL (≈ 11.8 µM) in experiment [4]; 1.6 µg/mL (≈ 5.88 µM) in experiment [5]; 1.6 µg/mL (≈ 5.88 µM) in experiment [6]. Also, the MIC90 amounted to 3.2 µg/mL (≈ 11.8 µM) in experiment [7]; 1.6 µg/mL (≈ 5.88 µM) in experiment [8]; 1.6 µg/mL (≈ 5.88 µM) in experiment [9]; 1.6 µg/mL (≈ 5.88 µM) in [10]; 1.6 µg/mL (≈ 5.88 µM) in experiment [11]; 1.6 µg/mL (≈ 5.88 µM) in experiment [12].
Consider `CCOC(=O)c1cn(CCc2ccccc2)c2c(ccc3c2nnn3C)c1=O`, for which the MIC90 in experiment [1], in [2], in [3], in [4], in experiment [5] and in experiment [6] was over 32 µg/mL throughout. Besides, the MIC90 in [7], in [8], in experiment [9], in experiment [10], in [11] and in experiment [12] was over 32 µg/mL each time.
Turning to `CCOC(=O)c1cn(C)c2c(ccc3c2nnn3C)c1=O`, the MIC90 came to 0.5 µg/mL (≈ 1.75 µM) in experiment [1]; 0.5 µg/mL (≈ 1.75 µM) in [2]; 0.5 µg/mL (≈ 1.75 µM) in experiment [3]; 2 µg/mL (≈ 6.99 µM) in experiment [4]; 0.5 µg/mL (≈ 1.75 µM) in experiment [5]; 0.5 µg/mL (≈ 1.75 µM) in [6]. Further, the MIC90 in [7], in experiment [8], in experiment [9], in experiment [10], in experiment [11] and in [12] was 0.5 µg/mL (≈ 1.75 µM) each time.
Consider `Cn1nnc2c3c(ccc21)c(=O)c(C(=O)O)cn3Cc1ccc(Br)cc1`, for which the MIC90 in experiment [1], in experiment [2], in [3], in experiment [4], in experiment [5] and in experiment [6] was over 32 µg/mL in each case. The MIC90 in experiment [7], in experiment [8], in experiment [9], in experiment [10], in experiment [11] and in experiment [12] was over 32 µg/mL each time.
Take `Cn1nnc2c3c(ccc21)c(=O)c(C(=O)O)cn3Cc1ccccc1`: the MIC90 in experiment [1], in experiment [2], in experiment [3], in [4], in [5] and in experiment [6] was over 32 µg/mL each time. Further, the MIC90 in experiment [7], in experiment [8], in experiment [9], in [10], in [11] and in experiment [12] was over 32 µg/mL throughout.

(Values after ChEMBL document CHEMBL1146225, “[1,2,3]Triazolo[4,5-h]quinolones. A new class of potent antitubercular agents against multidrug resistant Mycobacterium tuberculosis strains” (Bioorg Med Chem Lett, 2007).)
